Here are results for one substance from US20120071427A1, “NOVEL ANTIDIABETIC FUROSTANOLIC SAPONIN RICH (FSR) FRACTION FROM FENUGREEK SEEDS” (priority 2009, published 2012).

The assay deals with Type-1 diabetic rats. Briefly: Chronic administration, plasma glucose level in Type-1 diabetic rats. The conditions noted are these: for PGL: INS 1 U/kg i.p. once daily; for % PGL Reduction: INS 1 U/kg i.p., vs respective vehicle control group. Format: in vivo. The method, then: Experimental studies were performed in animal models (rats) to determine anti-diabetic potential if any (Type 1 and Type 2) of the novel fraction isolated from fenugreek seeds (>70% furostanolic saponins with approximately 30% protodioscin as one of the major fractions).

Consider Insulin, for which the PGL amounted to 527.98 ± 50.31 mg/dL (0 d), 218.33 ± 16.87 mg/dL (7 d) and 260.65 ± 22.96 mg/dL (14 d). Moreover, the “% PGL Reduction” value by setting is: (7 d) “(56.3%)”; (14 d) “(48.2%)”; (14 d, listed as insulin) 48.2%.
